Measurements taken from ChEMBL document CHEMBL1201861, “Genomics of Drug Sensitity in Cancer screening data, Wellcome Trust Sanger Institute”.

Tests used:
Assay in all cases: cells
[1] = tested on: OS-RC-2; type: functional, cell-based, Homo sapiens; conditions: Homo sapiens, OS-RC-2;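 further: growth inhibition of human OS-RC-2 cells, measured by a cell viability assay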
Description: SANGER: Inhibition of human OS-RC-2 cell growth in a cell viability assay.

[2] = tested on: SF-295; type: functional, cell-based, Homo sapiens; conditions: Homo sapiens, SF-295; read-out: IC50;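 further: growth inhibition of SF-295 cells, read out with a cell viability assay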
Description: SANGER: Inhibition of human SF295 cell growth in a cell viability assay.

[3] = tested on: 8-MG-BA; type: functional, cell-based, Homo sapiens; conditions: Homo sapiens, 8-MG-BA;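 further: growth inhibition of 8-MG-BA cells, read out with a cell viability assay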
Description: SANGER: Inhibition of human 8-MG-BA cell growth in a cell viability assay.

[4] = tested on: OVCAR-4; type: functional, cell-based, Homo sapiens; conditions: Homo sapiens, OVCAR-4;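 further: growth inhibition of human OVCAR-4 cells, measured with a cell viability assay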
Description: SANGER: Inhibition of human OVCAR-4 cell growth in a cell viability assay.

[5] = tested on: UO-31; type: functional, cell-based; conditions: Homo sapiens;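 further: cell viability assay measuring inhibition of cell growth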
Description: SANGER: Inhibition of human U031 cell growth in a cell viability assay.

[6] = tested on: 5637; type: functional, cell-based, Homo sapiens; conditions: Homo sapiens
Description: SANGER: Inhibition of human 5637 cell growth in a cell viability assay.

[7] = tested on: KE-37; type: functional, cell-based; conditions: Homo sapiens;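 further: growth inhibition of KE-37 cells, read out with a cell viability assay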
[8] = tested on: IST-SL1; type: functional, cell-based, Homo sapiens; conditions: Homo sapiens, IST-SL1;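 further: growth inhibition of human IST-SL1 cells, read out with a cell viability assay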
Description: SANGER: Inhibition of human IST-SL1 cell growth in a cell viability assay.

[9] = tested on: KS-1; type: functional, cell-based, Homo sapiens; conditions: Homo sapiens, KS-1;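 further: growth inhibition of KS-1 cells, read out with a cell viability assay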
[10] = tested on: MeWo; type: functional, cell-based, Homo sapiens; conditions: Homo sapiens, MeWo;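 further: growth inhibition of MeWo cells, determined by a cell viability readout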
Description: SANGER: Inhibition of human Mewo cell growth in a cell viability assay.

[11] = tested on: CTV-1; type: functional, cell-based; conditions: Homo sapiens;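 further: growth inhibition of the cell line, read out with a cell viability assay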
Description: SANGER: Inhibition of human CTV-1 cell growth in a cell viability assay.

[12] = tested on: VA-ES-BJ; type: functional, cell-based, Homo sapiens; conditions: Homo sapiens, VA-ES-BJ;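 further: growth inhibition of the VA-ES-BJ cell line, read out by a cell viability assay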
Description: SANGER: Inhibition of human VA-ES-BJ cell growth in a cell viability assay.

[13] = tested on: EW-13; type: functional, cell-based; conditions: Homo sapiens;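 further: growth inhibition of EW-13 cells, read out with a cell viability assay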
Description: SANGER: Inhibition of human EW-13 cell growth in a cell viability assay.

[14] = tested on: MLMA; type: functional, cell-based, Homo sapiens; conditions: Homo sapiens, MLMA;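 further: growth inhibition of MLMA cells (human), determined through a cell viability readout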
Description: SANGER: Inhibition of human MLMA cell growth in a cell viability assay.

[15] = tested on: NOMO-1; type: functional, cell-based; conditions: Homo sapiens;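 further: growth inhibition of human NOMO-1 cells measured by a cell viability assay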
Description: SANGER: Inhibition of human NOMO-1 cell growth in a cell viability assay.

[16] = tested on: MPP-89; type: functional, cell-based, Homo sapiens; conditions: Homo sapiens, MPP-89;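 further: growth inhibition of human MPP-89 cells, read out with a cell viability assay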
Description: SANGER: Inhibition of human MPP-89 cell growth in a cell viability assay.

[17] = tested on: CHP-212; type: functional, cell-based, Homo sapiens; conditions: Homo sapiens, CHP-212
Description: SANGER: Inhibition of human CHP-212 cell growth in a cell viability assay.

[18] = tested on: MZ1-PC; type: functional, cell-based, Homo sapiens; conditions: Homo sapiens, MZ1-PC;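 further: cell viability assay measuring growth inhibition of human MZ1-PC cells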
Description: SANGER: Inhibition of human MZ1-PC cell growth in a cell viability assay.

[19] = tested on: NCI-H510A; type: functional, cell-based; conditions: Homo sapiens;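 further: growth inhibition of NCI-H510A cells, read out with a cell viability assay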
[20] = tested on: SKG-IIIa; type: functional, cell-based, Homo sapiens; conditions: Homo sapiens, SKG-IIIa;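 further: cell growth inhibition, read out with a cell viability assay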
Description: SANGER: Inhibition of human SKG-IIIa cell growth in a cell viability assay.

[21] = tested on: KU812 cell line; type: functional, cell-based; conditions: Homo sapiens;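 further: growth inhibition of KU812 cells, read out with a cell viability assay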
Description: SANGER: Inhibition of human KU812 cell growth in a cell viability assay.

[22] = tested on: ES8; type: functional, cell-based, Homo sapiens; conditions: Homo sapiens, ES8;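 further: growth inhibition of human ES8 cells, read out with a cell viability assay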
Description: SANGER: Inhibition of human ES8 cell growth in a cell viability assay.

[23] = tested on: ML-2; type: functional, cell-based; conditions: Homo sapiens;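 further: growth inhibition of ML-2 cells, measured with a cell viability readout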
Description: SANGER: Inhibition of human ML-2 cell growth in a cell viability assay.

[24] = tested on: HO-1-N-1; type: functional, cell-based, Homo sapiens; conditions: Homo sapiens, HO-1-N-1;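 further: growth inhibition of human HO-1-N-1 cells, read out with a cell viability assay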
Description: SANGER: Inhibition of human HO-1-N-1 cell growth in a cell viability assay.

[25] = tested on: U-118-MG; type: functional, cell-based, Homo sapiens; conditions: Homo sapiens, U-118-MG
Description: SANGER: Inhibition of human U-118-MG cell growth in a cell viability assay.

[26] = tested on: LB1047-RCC; type: functional, cell-based, Homo sapiens; conditions: Homo sapiens, LB1047-RCC;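 further: inhibition of cell growth, determined with a cell viability assay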
Description: SANGER: Inhibition of human LB1047-RCC cell growth in a cell viability assay.

[27] = tested on: HCC70; type: functional, cell-based, Homo sapiens; conditions: Homo sapiens, HCC70;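 further: cell viability assay measuring how strongly the compound suppresses proliferation of HCC70 cells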
Description: SANGER: Inhibition of human HCC70 cell growth in a cell viability assay.

[28] = tested on: RXF 393; type: functional, cell-based; conditions: Homo sapiens;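 further: growth inhibition of human RXF 393 cells, read out with a cell viability assay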
[29] = tested on: WM-115; type: functional, cell-based, Homo sapiens; conditions: Homo sapiens, WM-115
Description: SANGER: Inhibition of human WM-115 cell growth in a cell viability assay.

[30] = tested on: NOS-1; type: functional, cell-based, Homo sapiens; conditions: Homo sapiens, NOS-1;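 further: growth inhibition of the human NOS-1 cell line, read out with a cell viability assay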
Description: SANGER: Inhibition of human NOS-1 cell growth in a cell viability assay.

[31] = tested on: MOLT-16; type: functional, cell-based; conditions: Homo sapiens;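 further: growth inhibition of human MOLT-16 cells, read out with a cell viability assay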
Description: SANGER: Inhibition of human MOLT-16 cell growth in a cell viability assay.

[32] = tested on: HuP-T3; type: functional, cell-based, Homo sapiens; conditions: Homo sapiens, HuP-T3;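 further: HuP-T3 cell growth inhibition, read out with a cell viability assay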
Description: SANGER: Inhibition of human HuP-T3 cell growth in a cell viability assay.

[33] = tested on: KARPAS-45; type: functional, cell-based; conditions: Homo sapiens;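 further: inhibition of cell line growth, read out through a viability assay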
Description: SANGER: Inhibition of human KARPAS-45 cell growth in a cell viability assay.

[34] = tested on: IGROV-1; type: functional, cell-based, Homo sapiens; conditions: Homo sapiens, IGROV-1;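 further: reduction of IGROV-1 cell growth, read out with a viability assay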
Description: SANGER: Inhibition of human IGROV-1 cell growth in a cell viability assay.

[35] = tested on: COR-L105; type: functional, cell-based, Homo sapiens; conditions: Homo sapiens, COR-L105;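 further: cell growth inhibition determined with a viability assay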
Description: SANGER: Inhibition of human COR-L105 cell growth in a cell viability assay.

[36] = tested on: SNU-449; type: functional, cell-based, Homo sapiens; conditions: Homo sapiens, SNU-449
Description: SANGER: Inhibition of human SNU-449 cell growth in a cell viability assay.

[37] = tested on: TCC-SUP; type: functional, cell-based, Homo sapiens; conditions: Homo sapiens, TCC-SUP;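 further: growth inhibition of TCC-SUP cells, read out with a cell viability assay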
Description: SANGER: Inhibition of human TCCSUP cell growth in a cell viability assay.

[38] = tested on: HH; type: functional, cell-based; conditions: Homo sapiens
Description: SANGER: Inhibition of human HH cell growth in a cell viability assay.

[39] = tested on: OCUB-M; type: functional, cell-based, Homo sapiens; conditions: Homo sapiens, OCUB-M;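 further: growth inhibition of the cancer cell line, read out through a cell viability assay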
Description: SANGER: Inhibition of human OCUB-M cell growth in a cell viability assay.

[40] = tested on: HC-1; type: functional, cell-based; conditions: Homo sapiens;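 further: growth inhibition of HC-1 cells measured by a cell viability assay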
Description: SANGER: Inhibition of human HC-1 cell growth in a cell viability assay.

[41] = tested on: KGN; type: functional, cell-based, Homo sapiens; conditions: Homo sapiens, KGN;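 further: growth inhibition of KGN cells, read out with a cell viability assay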
[42] = tested on: KOSC-2; type: functional, cell-based, Homo sapiens; conditions: Homo sapiens, KOSC-2;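 further: growth inhibition of KOSC-2 cells, read out by a cell viability assay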
[43] = tested on: DMS-273; type: functional, cell-based, Homo sapiens; conditions: Homo sapiens, DMS-273
Description: SANGER: Inhibition of human DMS-273 cell growth in a cell viability assay.

[44] = tested on: SiHa; type: functional, cell-based, Homo sapiens; conditions: Homo sapiens, SiHa;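 further: Viability-based readout of growth inhibition in SiHa cells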
Description: SANGER: Inhibition of human SiHa cell growth in a cell viability assay.

[45] = tested on: NCI-H226; type: functional, cell-based, Homo sapiens; conditions: Homo sapiens, NCI-H226;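 further: cell viability read-out used to gauge growth inhibition of the cells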
Description: SANGER: Inhibition of human NCI-H226 cell growth in a cell viability assay.

[46] = tested on: KP-N-YS; type: functional, cell-based; conditions: Homo sapiens;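 further: cell viability assay measuring inhibition of cell line growth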
Description: SANGER: Inhibition of human KP-N-YS cell growth in a cell viability assay.

[47] = tested on: CWR22R; type: functional, cell-based, Homo sapiens; conditions: Homo sapiens, 22Rv1;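 further: growth inhibition of 22Rv1 cells, read out with a cell viability assay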
Description: SANGER: Inhibition of human 22RV1 cell growth in a cell viability assay.

[48] = tested on: LB2518-MEL; type: functional, cell-based, Homo sapiens; conditions: Homo sapiens, LB2518-MEL;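 further: growth inhibition of human LB2518-MEL cells, measured with a cell viability assay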
Description: SANGER: Inhibition of human LB2518-MEL cell growth in a cell viability assay.

[49] = tested on: SH-4; type: functional, cell-based, Homo sapiens; conditions: Homo sapiens, SH-4;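 further: growth inhibition of SH-4 cells, read out with a cell viability assay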
Description: SANGER: Inhibition of human SH-4 cell growth in a cell viability assay.

[50] = tested on: HCC38; type: functional, cell-based, Homo sapiens; conditions: Homo sapiens, HCC38;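 further: cell viability assay on the human HCC38 cell line, with IC50 marking the concentration that inhibits cell growth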
Description: SANGER: Inhibition of human HCC38 cell growth in a cell viability assay.

[51] = tested on: NCI-H292; type: functional, cell-based, Homo sapiens; conditions: Homo sapiens, NCI-H292;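 further: growth inhibition of NCI-H292 cells, read out with a cell viability assay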
Description: SANGER: Inhibition of human NCI-H292 cell growth in a cell viability assay.

[52] = tested on: MFE-280; type: functional, cell-based, Homo sapiens; conditions: Homo sapiens, MFE-280;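 further: growth inhibition of MFE-280 cells, determined with a cell viability readout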
Description: SANGER: Inhibition of human MFE-280 cell growth in a cell viability assay.

[53] = tested on: MC116; type: functional, cell-based; conditions: Homo sapiens;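 further: growth inhibition of MC116 cells, read out with a cell viability assay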
Description: SANGER: Inhibition of human MC116 cell growth in a cell viability assay.

COC(=O)CNC(=O)C(=O)OC
IC50 [1]: 1750 µM
IC50 [2]: 344 µM
IC50 [3]: 126 µM
IC50 [4]: 93.8 µM
IC50 [5]: 338 µM
IC50 [6]: 857 µM
IC50 [7]: 43.3 µM
IC50 [8]: 492 µM
IC50 [9]: 11.3 µM
IC50 [10]: 230000 nM
IC50 [11]: 468 µM
IC50 [12]: 907 µM
IC50 [13]: 39000 nM
IC50 [14]: 46.3 µM
IC50 [15]: 154000 nM
IC50 [16]: 1280 µM
IC50 [17]: 181000 nM
IC50 [18]: 46 µM
IC50 [19]: 237 µM
IC50 [20]: 308 µM
IC50 [21]: 28500 nM
IC50 [22]: 673 µM
IC50 [23]: 178000 nM
IC50 [24]: 1070 µM
IC50 [25]: 784 µM
IC50 [26]: 50 µM
IC50 [27]: 306000 nM
IC50 [28]: 1260 µM
IC50 [29]: 220000 nM
IC50 [30]: 772 µM
IC50 [31]: 127 µM
IC50 [32]: 404 µM
IC50 [33]: 484 µM
IC50 [34]: 1390 µM
IC50 [35]: 26.4 µM
IC50 [36]: 92.5 µM
IC50 [37]: 432 µM
IC50 [38]: 34 µM
IC50 [39]: > 4000 µM
IC50 [40]: 569 µM
IC50 [41]: 62.8 µM
IC50 [42]: > 4000 µM
IC50 [43]: 16 µM
IC50 [44]: 1180 µM
IC50 [45]: > 4000 µM
IC50 [46]: 1680 µM
IC50 [47]: 304 µM
IC50 [48]: 235000 nM
IC50 [49]: 2420 µM
IC50 [50]: 1740 µM
IC50 [51]: 103000 nM
IC50 [52]: 1030 µM
IC50 [53]: 174 µM

CN(C)C/C=C/C(=O)Nc1cc2c(Nc3ccc(F)c(Cl)c3)ncnc2cc1O[C@H]1CCOC1 [AFATINIB]
IC50 [1]: > 0.5 µM
IC50 [2]: > 0.5 µM
IC50 [3]: > 0.5 µM
IC50 [4]: > 0.5 µM
IC50 [5]: > 0.5 µM
IC50 [6]: > 0.5 µM
IC50 [7]: > 0.5 µM
IC50 [8]: > 0.5 µM
IC50 [9]: > 0.5 µM
IC50 [10]: > 500 nM
IC50 [11]: > 0.5 µM
IC50 [12]: > 0.5 µM
IC50 [13]: > 500 nM
IC50 [14]: > 0.5 µM
IC50 [15]: > 500 nM
IC50 [16]: > 0.5 µM
IC50 [17]: > 500 nM
IC50 [18]: > 0.5 µM
IC50 [19]: > 0.5 µM
IC50 [20]: > 0.5 µM
IC50 [21]: 155 nM
IC50 [22]: > 0.5 µM
IC50 [23]: 248 nM
IC50 [24]: 0.279 µM
IC50 [25]: > 0.5 µM
IC50 [26]: > 0.5 µM
IC50 [27]: > 500 nM
IC50 [28]: > 0.5 µM
IC50 [29]: > 500 nM
IC50 [30]: > 0.5 µM
IC50 [31]: > 0.5 µM
IC50 [32]: > 0.5 µM
IC50 [33]: 0.0167 µM
IC50 [34]: 0.26 µM
IC50 [35]: 0.211 µM
IC50 [36]: > 0.5 µM
IC50 [37]: > 0.5 µM
IC50 [38]: > 0.5 µM
IC50 [39]: > 0.5 µM
IC50 [40]: > 0.5 µM
IC50 [41]: > 0.5 µM
IC50 [42]: > 0.5 µM
IC50 [43]: > 0.5 µM
IC50 [44]: > 0.5 µM
IC50 [45]: > 0.5 µM
IC50 [46]: > 0.5 µM
IC50 [47]: > 0.5 µM
IC50 [48]: > 500 nM
IC50 [49]: > 0.5 µM
IC50 [50]: > 0.5 µM
IC50 [51]: 60.9 nM
IC50 [52]: > 0.5 µM
IC50 [53]: > 0.5 µM

O=C(NOCC1CC1)c1ccc(F)c(F)c1Nc1ccc(I)cc1Cl [CI-1040]
IC50 [1]: > 10 µM
IC50 [2]: > 10 µM
IC50 [3]: > 10 µM
IC50 [4]: > 10 µM
IC50 [5]: > 10 µM
IC50 [6]: > 10 µM
IC50 [7]: > 10 µM
IC50 [8]: > 10 µM
IC50 [9]: > 10 µM
IC50 [10]: 1200 nM
IC50 [11]: > 10 µM
IC50 [12]: > 10 µM
IC50 [13]: 2560 nM
IC50 [14]: > 10 µM
IC50 [15]: 257 nM
IC50 [16]: > 10 µM
IC50 [17]: 28.9 nM
IC50 [18]: > 10 µM
IC50 [19]: > 10 µM
IC50 [20]: > 10 µM
IC50 [21]: 453 nM
IC50 [22]: > 10 µM
IC50 [23]: 1530 nM
IC50 [24]: 1.52 µM
IC50 [25]: > 10 µM
IC50 [26]: 4.74 µM
IC50 [27]: 2020 nM
IC50 [28]: 1.98 µM
IC50 [29]: 493 nM
IC50 [30]: > 10 µM
IC50 [31]: > 10 µM
IC50 [32]: 5.62 µM
IC50 [33]: > 10 µM
IC50 [34]: 4.45 µM
IC50 [35]: 6.65 µM
IC50 [36]: > 10 µM
IC50 [37]: > 10 µM
IC50 [38]: 4.42 µM
IC50 [39]: > 10 µM
IC50 [40]: > 10 µM
IC50 [41]: 9.84 µM
IC50 [42]: > 10 µM
IC50 [43]: > 10 µM
IC50 [44]: > 10 µM
IC50 [45]: > 10 µM
IC50 [46]: > 10 µM
IC50 [47]: > 10 µM
IC50 [48]: 716 nM
IC50 [49]: 0.463 µM
IC50 [50]: > 10 µM
IC50 [51]: 1870 nM
IC50 [52]: 6.86 µM
IC50 [53]: > 10 µM

Nc1ccn([C@@H]2O[C@H](CO)[C@@H](O)[C@@H]2O)c(=O)n1 [CYTARABINE]
IC50 [1]: 1.58 µM
IC50 [2]: > 2 µM
IC50 [3]: 0.341 µM
IC50 [4]: > 2 µM
IC50 [5]: 1.25 µM
IC50 [6]: 0.501 µM
IC50 [7]: 0.111 µM
IC50 [8]: > 2 µM
IC50 [9]: > 2 µM
IC50 [10]: 1240 nM
IC50 [11]: 0.0847 µM
IC50 [12]: 0.0717 µM
IC50 [13]: 1980 nM
IC50 [14]: 0.0555 µM
IC50 [15]: > 2000 nM
IC50 [16]: 1.31 µM
IC50 [17]: 33.5 nM
IC50 [18]: 1.8 µM
IC50 [19]: 0.0683 µM
IC50 [20]: 0.915 µM
IC50 [21]: > 2000 nM
IC50 [22]: 0.124 µM
IC50 [23]: 270 nM
IC50 [24]: 0.691 µM
IC50 [25]: > 2 µM
IC50 [26]: 0.108 µM
IC50 [27]: > 2000 nM
IC50 [28]: 0.7 µM
IC50 [29]: > 2000 nM
IC50 [30]: 1.91 µM
IC50 [31]: 0.0361 µM
IC50 [32]: 0.856 µM
IC50 [33]: > 2 µM
IC50 [34]: 1.79 µM
IC50 [35]: 0.16 µM
IC50 [36]: > 2 µM
IC50 [37]: > 2 µM
IC50 [38]: > 2 µM
IC50 [39]: > 2 µM
IC50 [40]: 1.08 µM
IC50 [41]: > 2 µM
IC50 [42]: 0.643 µM
IC50 [43]: 1.46 µM
IC50 [44]: 0.856 µM
IC50 [45]: > 2 µM
IC50 [46]: > 2 µM
IC50 [47]: > 2 µM
IC50 [48]: > 2000 nM
IC50 [49]: > 2 µM
IC50 [50]: 1.88 µM
IC50 [51]: 114 nM
IC50 [52]: > 2 µM
IC50 [53]: 1.28 µM
